Counter-ions that a name gives are not always drawn. Like-named read-outs stand apart in the source and are kept apart here.
Experiments:
β3-adrenoceptor = β3-adrenoceptor (Mustela putorius furo, UniProt M3YEU4); assay: Experiment for measuring β3-adrenoceptor stimulating effects (relaxation of isolated ferret urinary bladder smooth muscle, Magnus method); assay type: cell-based; details: read-out: EC50 value (concentration required to produce 50% of the relaxation of urinary bladder smooth muscle); isolated male ferret urinary bladder strips; 0% = maximal relaxation by 10^−5M forskolin
β3-adrenoceptor, sequence (M3YEU4 1-435): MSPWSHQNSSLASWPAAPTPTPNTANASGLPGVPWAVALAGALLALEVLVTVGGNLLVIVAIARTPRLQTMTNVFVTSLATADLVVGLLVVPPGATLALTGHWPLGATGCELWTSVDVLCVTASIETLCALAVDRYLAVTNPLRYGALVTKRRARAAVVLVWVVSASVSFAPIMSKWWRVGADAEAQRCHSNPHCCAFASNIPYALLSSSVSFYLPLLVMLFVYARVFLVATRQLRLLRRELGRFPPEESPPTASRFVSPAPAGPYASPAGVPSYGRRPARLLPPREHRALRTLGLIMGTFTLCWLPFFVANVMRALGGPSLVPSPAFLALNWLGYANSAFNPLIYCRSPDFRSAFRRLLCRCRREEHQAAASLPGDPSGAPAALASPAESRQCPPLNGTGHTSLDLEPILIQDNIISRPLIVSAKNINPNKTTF
Protocol: Namely, urinary bladders of ferrets were isolated and preparations were made. The experiment was conducted according to the Magnus method. The […] tension without addition of a test compound is expressed as 100%, and the tension of maximal relaxation after addition of 10^−5M forskolin was expressed as 0%. The test compound was added cumulatively.
The Experiment for Measuring β3-adrenoceptor Stimulating Effects
Urinary bladders of male ferrets (1100 to 1400 g in body weight) were isolated and urinary bladder smooth muscle strips of approximately 10 mm in length and approximately 2 mm in width were prepared. The experiment was conducted according to the Magnus method. The preparations with a tension of 1 g were exposed to Krebs-Henseleit solution maintained at 37° C. and gassed with a mixture of 95% oxygen and 5% carbon dioxide. Basal tensions of urinary bladder were isometrically measured with a force-displacement transducer and recorded. A test compound was cumulatively added to the Magnus bath every about 5 minutes. Tension of urinary bladder smooth muscle before addition of the test compound was expressed as 100% and tension of maximal relaxation induced by 10^−5M of forskolin was expressed as 0%.

β1-adrenoceptor = biological target: T1, β1-adrenoceptor (Rattus norvegicus, UniProt P18090); assay: Experiment for measuring β1-adrenoceptor stimulating effects (heart rate increase in isolated rat atria, Magnus method); assay type: cell-based; details: isolated atria of male SD rats, 100% = increase after 10^−8M isoproterenol
T1 construct: Atria of male SD rats (250 to 400 g in body weight) were isolated; from tissue; host or cells: atria of male SD rats
T1 sequence (P18090 whole entry): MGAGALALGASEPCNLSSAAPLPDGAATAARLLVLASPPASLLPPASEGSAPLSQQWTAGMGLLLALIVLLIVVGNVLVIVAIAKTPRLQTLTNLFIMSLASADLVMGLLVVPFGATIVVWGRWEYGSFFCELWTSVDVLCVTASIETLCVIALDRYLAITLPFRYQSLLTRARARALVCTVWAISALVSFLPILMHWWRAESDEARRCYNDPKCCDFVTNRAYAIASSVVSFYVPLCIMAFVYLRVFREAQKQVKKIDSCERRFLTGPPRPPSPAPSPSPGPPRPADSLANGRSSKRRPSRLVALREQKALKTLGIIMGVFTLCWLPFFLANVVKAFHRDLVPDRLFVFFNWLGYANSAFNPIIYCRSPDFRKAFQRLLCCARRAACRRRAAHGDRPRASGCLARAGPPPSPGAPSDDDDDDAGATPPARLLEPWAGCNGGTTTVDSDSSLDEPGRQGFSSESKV
Protocol: Namely, the experiment was conducted using atria of rats according to the Magnus method. The increment of heart rate after addition of 10^−8M isoproterenol was expressed as 100%. A test compound was added cumulatively.
The Experiment for Measuring β1-adrenoceptor Stimulating Effects
Atria of male SD rats (250 to 400 g in body weight) were isolated and the experiment was conducted according to the Magnus method. The preparations with a tension of 0.5 g were exposed to Krebs-Henseleit solution maintained at 37° C. and gassed with a mixture of 95% oxygen and 5% carbon dioxide. The cardiac contractility was isometrically measured with a force-displacement transducer, and heart rate was recorded via a tachometer. A test compound was added cumulatively. Increase of heart rate per minute after addition of 10^−8M isoproterenol was expressed as 100%.

β2-adrenoceptor = biological target: T2, β2-adrenoceptor (Rattus norvegicus, UniProt P10608); assay: Experiment for measuring β2-adrenoceptor stimulating effects (inhibition of spontaneous contraction of isolated pregnant rat uterus, Magnus method); assay type: cell-based; details: isolated uteri of pregnant SD rats (pregnancy day 21), sum of contractions during 5 minutes
T2 construct: Uteri of pregnant SD rats (pregnancy day 21) were isolated; from tissue; host or cells: uterus (myometrium strips) of pregnant SD rats, day 21
T2 sequence (P10608 whole entry): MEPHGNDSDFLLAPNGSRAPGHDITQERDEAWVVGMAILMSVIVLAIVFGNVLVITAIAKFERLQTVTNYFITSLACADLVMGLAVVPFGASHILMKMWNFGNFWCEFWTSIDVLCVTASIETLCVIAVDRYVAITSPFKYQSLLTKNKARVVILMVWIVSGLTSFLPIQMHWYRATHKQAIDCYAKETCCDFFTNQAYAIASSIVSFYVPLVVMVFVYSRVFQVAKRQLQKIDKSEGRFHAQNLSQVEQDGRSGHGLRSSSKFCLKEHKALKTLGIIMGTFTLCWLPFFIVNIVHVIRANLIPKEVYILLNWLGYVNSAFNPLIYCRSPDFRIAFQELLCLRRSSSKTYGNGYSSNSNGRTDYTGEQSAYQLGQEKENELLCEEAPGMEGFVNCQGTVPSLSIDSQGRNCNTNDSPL
Protocol: Also, uteri of pregnant rats were isolated and preparations were made. The experiment was conducted according to the Magnus method. The sum of uterine contractions during 5 minutes before addition of a test compound was expressed as 100%. The test compound was added cumulatively.
The Experiment for Measuring β2-adrenoceptor Stimulating Effects
Uteri of pregnant SD rats (pregnancy day 21) were isolated and longitudinal strips of approximately 15 mm in length and approximately 5 mm in width free from the basal plate were prepared. The experiment was conducted according to the Magnus method. The preparations with a tension of 0.5 g were exposed to Locke-Ringer solution maintained at 37° C. and gassed with a mixture of 95% oxygen and 5% carbon dioxide. Spontaneous contractions of myometrium were isometrically measured with a force-displacement transducer and recorded. A test compound was cumulatively added to the Magnus bath every 5 minutes.

male ICR rats = assay: Acute toxicity test; assay type: in vivo, rat; details: male ICR rats of 4 weeks age, oral, 2 g/kg, during 24 hours after the administration, hydrochloride
Protocol: Furthermore, the compounds represented by the above general formula (I) of the present invention are very safe.
To male ICR rats of 4 weeks age was administered orally ethyl 2-[2-chloro-4-[2-[[(1S,2R)-2-hydroxy-2-(4-hydroxyphenyl)1-methylethyl]amino]ethyl]phenoxy]acetate hydrochloride at a does of 2 g/kg.

Row | SMILES | EC50 (β1-adrenoceptor) [µM] | EC50 (β2-adrenoceptor) [µM] | also measured
1 | C[C@H](Cc1ccc(OCC(=O)O)cc1)NC[C@H](O)c1cccc(Cl)c1 [(R,R)-BRL-37344, reference compound] |  |  | EC50 (β3-adrenoceptor): 0.0016 µM; EC50 (β1-adrenoceptor; read-out: EC50 value (concentration required to produce 50% increase of heart rate per minute)): 0.27 µM; EC50 (β2-adrenoceptor; read-out: EC50 value (concentration required to produce 50% of the inhibition of uterine contraction)): 0.009 µM
2 | C[C@H](NCCc1ccc(OCC(=O)O)c(Br)c1)[C@H](O)c1ccc(O)cc1 [Compound 24] | > 100 | 10 | 
3 | C[C@H](NCCc1ccc(OCC(=O)O)c(Cl)c1)[C@H](O)c1ccc(O)cc1 [Compound 25, 2-[2-Chloro-4-[2-[[(1S,2R)-2-hydroxy-2-(4-hydroxyphenyl)-1-methylethyl]amino]ethyl]phenoxy]acetic acid] | 70 |  | 
4 | C[C@H](NCCc1cc(Cl)c(OCC(=O)O)c(Cl)c1)[C@H](O)c1ccc(O)cc1 [Compound 26] | > 100 | 1.4 | 
5 | C[C@H](NCCc1cc(Cl)c(OCC(=O)O)cc1Cl)[C@H](O)c1ccc(O)cc1 [Compound 27, 2-[2,5-Dichloro-4-[2-[[(1S,2R)-2-hydroxy-2-(4-hydroxyphenyl)-1-methylethyl]amino]ethyl]phenoxy]acetic acid] | 49 | 0.49 | 
6 | C[C@H](NCCc1ccc(OCC(=O)O)c(F)c1)[C@H](O)c1ccc(O)cc1 [Compound 28, 2-[2-Fluoro-4-[2-[[(1S,2R)-2-hydroxy-2-(4-hydroxyphenyl)-1-methylethyl]amino]ethyl]phenoxy]acetic acid] | 30 | 1.8 | 
7 | COc1cc(CCN[C@@H](C)[C@H](O)c2ccc(O)cc2)ccc1OCC(=O)O [Compound 29, 2-(4-[2-[[(1S,2R)-2-Hydroxy-2-(4-hydroxyphenyl)-1-methylethyl]amino]ethyl]-2-methoxyphenoxy]acetic acid] | > 100 | 3.9 | 
8 | CCOc1cc(CCN[C@@H](C)[C@H](O)c2ccc(O)cc2)ccc1OCC(=O)O [Compound 30, 2-[2-Ethoxy-4-[2-[[(1S,2R)-2-hydroxy-2-(4-hydroxyphenyl)-1-methylethyl]amino]ethyl]phenoxy]acetic acid] | > 100 | 25 | 
9 | C[C@H](NCCc1ccc(OCC(=O)O)c(OCc2ccccc2)c1)[C@H](O)c1ccc(O)cc1 [Compound 31, 2-[2-Benzyloxy-4-[2-[[(1S,2R)-2-hydroxy-2-(4-hydroxyphenyl)-1-methylethyl]amino]ethyl]phenoxy]acetic acid] | > 100 | 1.9 | 
10 | Cc1cc(CCN[C@@H](C)[C@H](O)c2ccc(O)cc2)ccc1OCC(=O)O [Compound 33] | 31 | 13 | 
11 | Cc1cc(OCC(=O)O)c(C)cc1CCN[C@@H](C)[C@H](O)c1ccc(O)cc1 [Compound 35, 2-[4-[2-[[(1S,2R)-2-Hydroxy-2-(4-hydroxyphenyl)-1-methylethyl]amino]ethyl]-2,5-dimethylphenoxy]acetic acid] | 38 | 1.8 | 
12 | C[C@H](NCCc1ccc(OCC(=O)O)c(C(F)(F)F)c1)[C@H](O)c1ccc(O)cc1 [Compound 36, 2-[4-[2-[[(1S,2R)-2-Hydroxy-2-(4-hydroxyphenyl)-1-methylethyl]amino]ethyl]-2-(trifluoromethyl)phenoxy]acetic acid hydrochloride] | > 100 | 20 | 
13 | C[C@H](NCCc1ccc(OCC(=O)O)c(C#N)c1)[C@H](O)c1ccc(O)cc1 [Compound 37, 2-[2-Cyano-4-[2-[[(1S,2R)-2-hydroxy-2-(4-hydroxyphenyl)-1-methylethyl]amino]ethyl]phenoxy]acetic acid] | 33 | 76 | 
14 | C[C@H](NCCc1ccc(OCC(=O)O)c([N+](=O)[O-])c1)[C@H](O)c1ccc(O)cc1 [Compound 38, 2-[4-[2-[[(1S,2R)-2-Hydroxy-2-(4-hydroxyphenyl)-1-methylethyl]amino]ethyl]-2-nitrophenoxy]acetic acid] | 58 | 2.6 | 
15 | CCOC(=O)COc1ccc(CCN[C@@H](C)[C@H](O)c2ccc(O)cc2)cc1NC=O [Compound 40, Ethyl 2-[2-Formylamino-4-[2-[[(1S,2R)-2-hydroxy-2-(4-hydroxyphenyl)-1-methylethyl]amino]ethyl]phenoxy]acetate] | 3.5 | 1 | 
16 | C[C@H](NCCc1ccc(OCC(=O)O)c(C(=O)N(C)C)c1)[C@H](O)c1ccc(O)cc1 [Compound 43, 2-[2-(Dimethylaminocarbonyl)-4-[2-[[(1S,2R)-2-hydroxy-2-(4-hydroxyphenyl)-1-methylethyl]amino]ethyl]phenoxy]acetic acid] | 58 | 53 | 
17 | C[C@H](NCCc1ccc(OCC(=O)O)c(O)c1)[C@H](O)c1ccc(O)cc1 [Compound 46, 2-[2-Hydroxy-4-[2-[[(1S,2R)-2-hydroxy-2-(4-hydroxyphenyl)-1-methylethyl]amino]ethyl]phenoxy]acetic acid] | 21 | 0.21 | 
18 | C[C@H](NCCc1ccc(OCC(=O)O)c(N(C)C)c1)[C@H](O)c1ccc(O)cc1 [Compound 47, 2-[2-Dimethylamino-4-[2-[[(1S,2R)-2-hydroxy-2-(4-hydroxyphenyl)-1-methylethyl]amino]ethyl]phenoxy]acetic acid] | > 100 | 17 | 
19 | CCOC(=O)COc1ccc(CCN[C@@H](C)[C@H](O)c2ccc(O)cc2)cc1Cl.Cl [Compound 48, Ethyl 2-[2-chloro-4-[2-[[(1S,2R)-2-hydroxy-2-(4-hydroxyphenyl)-1-methylethyl]amino]ethyl]phenoxy]acetate hydrochloride] | 17 |  | Death of animals (acute toxicity) (male ICR rats; listed as ethyl 2-[2-chloro-4-[2-[[(1S,2R)-2-hydroxy-2-(4-hydroxyphenyl)1-methylethyl]amin): No death of animals was observed; Death of animals (acute toxicity) (male ICR rats; listed as ethyl 2-[2-chloro-4-[2-[[(1S,2R)-2-hydroxy-2-(4-hydroxyphenyl)-1-methylethyl]ami): no death was observed
20 | CCOC(=O)COc1cc(Cl)c(CCN[C@@H](C)[C@H](O)c2ccc(O)cc2)cc1Cl [Compound 49, Ethyl 2-[2,5-dichloro-4-[2-[[(1S,2R)-2-hydroxy-2-(4-hydroxyphenyl)-1-methylethyl]amino]ethyl]phenoxy]acetate hydrochloride] | 6.8 | 0.061 | 
